Laboratory results from US5814646A, “Inhibitors of amyloid beta-protein production” (Eli Lilly and Company, priority 1995, dated 1998).
pIC50: −log10 of the molar value.

Tested on: Aβ production in 293 751 SWE and CHO 751 SWE cells (transfected with APP-751 Swedish mutation)
Assay: Aβ production inhibition activity in cells (Aβ ELISA of conditioned media, normalized for cytotoxicity by MTT)
Format: cell-based
Conditions: 5 μg/ml
Method in brief: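 293 and CHO cells stably expressing APP-751 with the Swedish mutation were seeded in 96-well plates and grown overnight at 37° C. They were pretreated with compound for two hours, then given fresh compound-containing media for two more hours. Aβ in the conditioned media was quantified by sandwich ELISA (antibodies 266 and 6C6) and normalized to MTT viability versus drug-free control.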

Compound | inhibition at 5 µg/mL [%]
COc1cc(COc2ccc(CN(O)C(=S)NCc3ccccc3)cc2)cc(OC)c1 [Compound 60] | 17
CCCCCCNC(=S)N(O)Cc1ccc(OCc2ccc(Cl)c(Cl)c2)cc1 [Compound 55] | 37

Same assay, conditions: 10 μg/ml, % of drug-free control, normalized to MTT

Compound | inhibition at 10 µg/mL [%]
CC(c1cccc(Oc2ccc(C(C)(C)C)cc2)c1)N(O)C(=S)NCc1ccc(Cl)c(Cl)c1 (centres unmarked) [Compound 2] | 77
CC(C)(C)c1cccc(Oc2ccc(NC(=S)Nc3ccccc3C(F)(F)F)cc2)c1 [Compound 189] | 37
COC(=O)c1ccccc1NC(=O)Nc1ccc(Cl)c(Cl)c1 [Compound 142] | 22
CC(C)(C)c1ccc(Oc2ccccc2NC(=S)NCc2ccc(Cl)c(Cl)c2)cc1 [Compound 183] | 24
CC(C)(C)c1ccc(-c2ccc(CN(O)C(=S)NCc3ccccc3)cc2)cc1 [Compound 81] | 20
ON(Cc1ccc(-c2ccccc2)cc1)C(=S)NCc1ccc(Cl)c(Cl)c1 [Compound 76] | 13
CCCCOc1ccc(COc2cccc(CN(O)C(=S)NCc3ccccc3)c2)cc1 [Compound 66] | 21
CC(NC(=S)N(O)C(C)c1cccc(Oc2ccc(C(C)(C)C)cc2)c1)c1ccccc1 (centres unmarked) [Compound 13] | 46

Same assay, conditions: 2 h pretreatment + 2 h incubation

Compound | pIC50
CC(C)(CCl)c1nnc(NC(=O)Nc2ccc(Cl)c(Cl)c2)s1 [Compound 238, 1-[5-(2-chloro-1,1-dimethylethyl)-1,3,4-thiadiazol-2-yl]-3-(3,4-dichlorophenyl)urea] | 5.85
CC(c1cccc(Oc2ccc(C(C)(C)C)cc2)c1)N(O)C(=S)NCc1cccc(F)c1 (centres unmarked) [Compound 18] | 4.74
CCCc1cc(C(C)(C)C)ccc1Oc1ccc(NC(=S)NCc2ccccc2)cc1 [Compound 197] | 5.34
CC(C)(C)c1ccc(SCc2ccc(CN(O)C(=S)NCc3ccccc3)cc2)cc1 [Compound 94] | 4.88
CCCCCCSc1nnc(NC(=O)Nc2ccc(Cl)c(Cl)c2)s1 [Compound 239, 1-(5-hexylthio-1,3,4-thiadiazol-2-yl)-3-(3,4-dichlorophenyl)urea] | 5.85
O=C(Nc1ccccc1)Nc1ccc(Cl)c(Cl)c1 [Compound 152] | 4.94
CC(C)(C)c1ccc(Oc2ccc(NC(=S)NCc3cccc(C(F)(F)F)c3)cc2)cc1 [Compound 179] | 5.19
CC(C)(C)c1ccc(Oc2ccc(NC(=S)NCCCCc3ccccc3)cc2)cc1 [Compound 118] | 4.79
CC(C)(C)c1cccc(Oc2cccc(NC(=S)Nc3ccc(Cl)c(C(F)(F)F)c3)c2)c1 [Compound 172] | 5.42
CCCCCCNC(=S)N(O)Cc1cccc(NC(=O)c2ccc(C(C)(C)C)cc2)c1 [Compound 85] | 4.73
CSc1ccc(NC(=O)Nc2ccc(Cl)c(Cl)c2)cc1Br [Compound 150] | 5.28
CSc1ccc(NC(=O)Nc2ccc(SC)c(Br)c2)cc1 [Compound 164] | 4.84
CC(C)(C)c1ccc(Oc2cccc(NC(=S)Nc3ccc(Cl)c(C(F)(F)F)c3)c2)cc1 [Compound 168] | 5.41
CC(C)(C)c1ccc(Oc2ccc(NC(=S)NCc3ccc(Cl)cc3)cc2)cc1 [Compound 106] | 5.04
CC(C)(C)c1ccc(Oc2ccc(NC(=S)NCc3cccc(Cl)c3)cc2)cc1 [Compound 105] | 5.03
CC(C)(C)c1ccc(Oc2ccc(NC(=S)NCC3CCCNC3)cc2)cc1 (centres unmarked) [Compound 127] | 4.93
